Test results from patent US20190015385A1, “VITAMIN E PHOSPHATE OR ACETATE FOR USE IN THE TREATMENT AND PREVENTION OF BIOFILM INFECTIONS” (priority 2016, published 2019).

Assays:
S. aureus [1] = assay: Anti-adhesion activity on coated titanium disks, CFU count (Example 3); assay type: cell-based, Staphylococcus aureus; conditions: 5 mg/cm^2 coating, 30, 60 and 120 minutes
Experimental: (§1) Sterile disks of sandblasted titanium with a diameter of 25 mm and a thickness of 5 mm (Adler Ortho, Cormano, Italy) were used as the substrate for the formation of biofilms. The disks were coated with sub-inhibitory concentrations of vitamin E acetate (5 mg/cm^2) or vitamin E phosphate (5 mg/cm^2). The concentrations were selected based on the MIC results. Uncoated disks were used as negative controls. The anti-adhesion activity of vitamin E was assessed against a representative strain for each species. An overnight bacteria culture was resuspended in Brain Heart Infusion Broth (BHI; Biomérieux) at a density of 1.0×10^7 CFU/ml for each strain, and 400 microliters of microbial suspension were inoculated on coated and uncoated disks. The test was performed in triplicate for each strain. After 30, 60 and 120 minutes of incubation, the disks were washed twice with a sterile saline solution to eliminate non-adherent bacteria. The disks were then immersed in 5 ml of a 0.1 w/v % dithiothreitol solution (DTT, Sigma-Aldrich, Milan, Italy) and mechanically stirred for 15 minutes at room temperature. Suitable dilutions of the fluids obtained were inoculated on Tryptic Soy Agar (TSA, Merck) and incubated at 37° C. in an aerobic atmosphere for 24 hours for the CFU count.

Staphylococcus aureus = assay: Anti-biofilm activity, crystal violet spectrophotometric assay (Example 1); assay type: cell-based; conditions: S. aureus
Experimental: (§2) The bacterial biofilm was formed in a sterile 96-well polystyrene plate. In short, a microbial suspension was prepared at an optical density of 0.5 McFarland for each strain. 20 μl of microbial suspension were added to each well containing 180 μl of VitE at various concentrations. Positive controls were performed by inoculating the bacteria in BHI+HA. Following incubation for 24 h at 37° C., the broth was removed, together with non-adherent microorganisms, and 200 μl of broth were added once again. The plates were incubated at 37° C. for another 48 h, until a mature biofilm was obtained.
(§3) The amount of biofilm was determined by means of a spectrophotometric assay, adopting the method developed by Christensen et al. (1985). At the end of the incubation period, the culture medium was removed and the wells covered by the biofilm were washed twice with a sterile saline solution and then dried. The biofilm was stained with 200 μl of a 5% crystal violet solution for 10 minutes. After staining, the wells were washed with a sterile saline solution to remove excess stain and left to dry completely. Lastly, 200 μl of 96% ethanol were added to each well to re-solubilize the stain included in the biofilm. Absorbance of the crystal violet was measured at 595 nm using a microplate reader. The assay was conducted in triplicate for each bacterial strain and repeated twice.

[2] = test system: Staphylococcus epidermidis; assay: as above; assay type: cell-based; conditions: S. epidermidis
Experimental: as §2, §3

Pseudomonas aeruginosa = assay: as above; assay type: cell-based; conditions: P. aeruginosa
Experimental: as §2, §3

P. aeruginosa [3] = assay: MIC and MBC, broth microdilution (Example 3); assay type: cell-based, Pseudomonas aeruginosa; conditions: P. aeruginosa strains
Text: (§4) This study used clinically relevant strains isolated from patients with prosthetic joint infections at the Microbiology Laboratory of the IRCCS Galeazzi Orthopaedic institute (Italy). In particular, the following were selected: strains of methicillin-resistant Staphylococcus epidermidis, of methicillin-resistant Staphylococcus aureus and of Pseudomonas aeruginosa. These strains were identified beforehand by means of biochemical assays (VITEK® 2 Compact, bioMérieux, Marcy l'Etoile, France) and stored at −80° C. prior to the analysis. Before beginning the study, all strains were screened to assess their ability to produce biofilms, according to the spectrophotometric assay described by Christensen et al. (J Clin Microbiol 1985; 22: 996-1006).
(§5) The bacteriostatic and bactericidal activity of vitamin E acetate and vitamin E phosphate against the above-mentioned bacterial strains was assessed by measuring the minimum inhibitory concentration (MIC) and the minimum bactericidal concentration (MBC). MIC, defined as the lowest concentration capable of inhibiting bacterial growth, was determined using the broth microdilution method according to EUCAST guidelines (http://www.eucast.org/clinical_breakpoints/).
(§6) In short, a suspension in Brain Heart Infusion Broth (BHI; Biomérieux, Marci l'Etoile, France) was prepared for each bacterial strain, with an optical density of 0.5 McFarland (1.5×10^8 CFU/ml). The P. acnes broth was supplemented with 5% defibrinated sheep blood (Liofilchem, Roseto degli Abruzzi, Italy). After a concentration of 10^5 UFC/ml was obtained using appropriate dilutions, each suspension was inoculated in a 96-well microtitre plate containing a two-fold serial dilution of vitamin E acetate (VitE-Ac) and vitamin E phosphate. The controls were performed by inoculating bacterial suspensions in BHI alone. […] After incubation at adequate conditions, MBC was read as the lowest concentration capable of killing 99.9% of the initial inoculum.

P. aeruginosa [4] = assay: Anti-adhesion activity on coated titanium disks, CFU count (Example 3); assay type: cell-based, Pseudomonas aeruginosa; conditions: 5 mg/cm^2 coating, 30, 60 and 120 minutes
Experimental: as §1

S. epidermidis = assay: as above; assay type: cell-based, Staphylococcus epidermidis; conditions: 5 mg/cm^2 coating, 30, 60 and 120 minutes
Experimental: as §1

S. aureus [5] = assay: MIC and MBC, broth microdilution (Example 3); assay type: cell-based, Staphylococcus aureus; conditions: S. aureus strains
Text: as §4, §5, §6

[6] = kills 99.9% of the initial inoculum

## CC(=O)Oc1c(C)c(C)c2c(c1C)CCC(C)(CCC[C@H](C)CCC[C@H](C)CCCC(C)C)O2 (stereo partly drawn) [Vitamin E acetate, α-tocopherol acetate]
S. aureus [1]
  decrease in adhesion (in words): significant decrease
Staphylococcus aureus; 2.5% VitE in HA carrier
  reduction of microbial biofilm with respect to the control: 63%
Staphylococcus aureus; 5% VitE in HA carrier
  reduction of microbial biofilm with respect to the control: 79%
[2]; 2.5% VitE in HA carrier
  reduction of microbial biofilm with respect to the control: 30%
[2]; 5% VitE in HA carrier
  reduction of microbial biofilm with respect to the control: 46%
Pseudomonas aeruginosa; 2.5% VitE in HA carrier
  reduction of microbial biofilm with respect to the control: 24%
Pseudomonas aeruginosa; 5% VitE in HA carrier
  reduction of microbial biofilm with respect to the control: 39%
P. aeruginosa [3]; 24 hours
  MIC range: >200 mg/mL
P. aeruginosa [3]; [6]
  MBC range: >200 mg/mL
P. aeruginosa [4]
  decrease in adhesion (in words): No effect
S. epidermidis
  decrease in adhesion (in words): significant decrease
S. aureus [5]; 24 hours
  MIC range: >200 mg/mL
S. aureus [5]; [6]
  MBC range: >200 mg/mL
